# Measurements taken from ChEMBL document CHEMBL1152743, “Design and synthesis of 1,2-annulated adamantane piperidines with anti-influenza virus activity” (Bioorg Med Chem, 2009).
# Active and inactive are the calls of the source. The calls are words filed in the database; no cut-off is given here.
# Legend:
# [1] = Cytotoxicity against MDCK cells assessed as changes in cell morphology after 72 hrs […]; format: cell-based, Canis lupus familiaris; conditions: dog
# [2] = Selectivity index, ratio of MCC for MDCK cells to EC50 for influenza A virus H3N2; format: toxicity, cell-based; conditions: dog
# Influenza B virus = experiment: Antiviral activity against influenza B virus; format: functional, organism-based
# Influenza A virus [3] = experiment: microbe, parasite or virus in culture; conditions: H3N2, 72 h
# Description: (§1) Antiviral activity against influenza A virus H3N2 assessed as inhibition of virus-induced cytopathic effect after 72 hrs by MTS assay
# Influenza A virus [4] = system: Influenza A virus
# Description: as §1
# Influenza A virus [5] = format: functional, organism-based; conditions: H3N2, 500 uM
SMILES,MCC at 72 h [1],selectivity ratio [2],Activity (Influenza B virus),EC50 (Influenza A virus [3]),EC50 (Influenza A virus [4]),Activity (Influenza A virus [5])
CCN1CCC23CC4CC(CC(C4)C12)C3 (stereo not given),439 µM,128,inactive,3400 nM,–,–
C1CC2C3CC4CC(C3)CC2(CN1)C4 (stereo not given),439 µM,> 732,inactive,600 nM,–,–
CN1CC2C3CC4CC(C3)CC2(C4)C1 (stereo not given),83 µM,35,inactive,2400 nM,–,–
CC(N)C12CC3CC(CC(C3)C1)C2 (stereo not given) [RIMANTADINE],> 500 µM,–,inactive,360 nM,–,–
NC(=O)c1ncn([C@@H]2O[C@H](CO)[C@@H](O)[C@H]2O)n1 [RIBAVIRIN],20 µM,–,inactive,–,8700 nM,–
C1CC23CC4CC(CC(C4)C2N1)C3 (stereo not given),468 µM,217,inactive,2200 nM,–,–
CN1CCC2C3CC4CC(C3)CC2(C4)C1 (stereo not given),–,–,inactive,–,–,inactive
CN1CCC23CC4CC(CC(C4)C2C1)C3 (stereo not given),–,–,inactive,–,–,inactive
C1C2CC3CC1CC1(CNCC31)C2 (stereo not given),94 µM,200,inactive,500 nM,–,–
C1CNC2C3CC4CC(C3)CC2(C1)C4 (stereo not given),439 µM,106,inactive,4100 nM,–,–
CN1CCCC23CC4CC(CC(C4)C12)C3 (stereo not given),83 µM,19,inactive,4400 nM,–,–
CN1CCC23CC4CC(CC(C4)C12)C3 (stereo not given),83 µM,11,inactive,7700 nM,–,–
CCN1CCC23CC4CC(CC(C4)C2C1)C3 (stereo not given),–,–,inactive,–,–,inactive
NC12CC3CC(CC(C3)C1)C2 [AMANTADINE],> 500 µM,> 250,inactive,2000 nM,–,–
C1CC23CC4CC(CC(C4)C2CN1)C3 (stereo not given),–,–,inactive,–,–,inactive
